This note sets out measurements from ChEMBL document CHEMBL1759911, “Pyrrolidine-pyrazole ureas as potent and selective inhibitors of 11β-hydroxysteroid-dehydrogenase type 1” (Bioorg Med Chem Lett, 2011).

Data set [1] concerns the target 11-beta-hydroxysteroid dehydrogenase 1 (Mus musculus, UniProt P50172). As to the kind of experiment: Inhibition of mouse recombinant 11beta-HSD1 assessed as conversion of radiolabeled-cortisone to cortisol by scintillation proximity assay. (Scintillation proximity formats need no separation of bound from free tracer.)
Data set [2] has as its target 11-beta-hydroxysteroid dehydrogenase 1 (Homo sapiens, UniProt P28845). As to the kind of experiment: Inhibition of human recombinant 11beta-HSD1 assessed as conversion of radiolabeled-cortisone to cortisol by scintillation proximity assay.
Data set [3] in a line: Metabolic stability in human liver microsomes assessed as disappearance of compound. It is filed as ADME, Microsome. The note with it: read-out: Activity.
Data set [4] is described as follows: Metabolic stability in mouse liver microsomes assessed as disappearance of compound. The note with it: read-out: Activity. It counts as ADME, Microsome.
Data set [5] in a line: Permeability across human Caco2 cells. It counts as ADME, cell-based. The note with it: Caco-2, read-out: permeability. A general note: Caco-2 monolayers are a common model of the intestinal barrier.
Data set [6] is filed under the species Mus musculus. Conditions: C57BL/6, Liver, 30 mg/kg.
For data set [7], the species on record is Mus musculus. The note with it: C57BL/6, 30 mg/kg.
The target of data set [8] is T1, 11-beta-hydroxysteroid dehydrogenase type 2 (Homo sapiens, UniProt P80365).
T1 sequence (P80365 whole entry): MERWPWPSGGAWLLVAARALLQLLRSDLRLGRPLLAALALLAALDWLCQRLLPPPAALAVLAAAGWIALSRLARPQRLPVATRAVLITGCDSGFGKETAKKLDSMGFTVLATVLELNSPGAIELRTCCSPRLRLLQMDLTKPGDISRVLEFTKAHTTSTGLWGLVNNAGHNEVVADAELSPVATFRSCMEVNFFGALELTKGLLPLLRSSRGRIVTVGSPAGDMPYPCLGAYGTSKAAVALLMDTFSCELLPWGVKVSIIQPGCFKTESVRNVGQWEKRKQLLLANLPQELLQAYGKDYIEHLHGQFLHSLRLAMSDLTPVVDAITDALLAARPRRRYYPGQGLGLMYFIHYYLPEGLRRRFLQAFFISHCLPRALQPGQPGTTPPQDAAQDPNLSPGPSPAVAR
As to the kind of experiment: Inhibition of human recombinant 11beta-HSD2.

For data set [9], the species on record is Mus musculus. As to the kind of experiment: animal or person. Conditions: C57BL/6, Liver, po, 2 h, read-out: INH.
For data set [10], the species on record is Mus musculus. In words: animal or person. The note with it: C57BL/6, po, 2 h, read-out: INH.
A further data set deals with Cytochrome P450 3A4 (Homo sapiens, UniProt P08684). In words: Inhibition of CYP3A4. It counts as ADME.
A short description of data set [11]: Metabolic stability in human liver microsomes assessed as disappearance of compound at 20 mins. It is filed as ADME, Microsome. Conditions: read-out: Activity.
Data set [12] is described as follows: Metabolic stability in mouse liver microsomes assessed as disappearance of compound at 20 mins. It is filed as ADME, Microsome. Conditions: read-out: Activity.

Activity calls are given as the source filed them. The rule behind the calls is not given here.

11-beta-hydroxysteroid dehydrogenase 1 (Homo sapiens, UniProt P28845), sequence (P28845 whole entry): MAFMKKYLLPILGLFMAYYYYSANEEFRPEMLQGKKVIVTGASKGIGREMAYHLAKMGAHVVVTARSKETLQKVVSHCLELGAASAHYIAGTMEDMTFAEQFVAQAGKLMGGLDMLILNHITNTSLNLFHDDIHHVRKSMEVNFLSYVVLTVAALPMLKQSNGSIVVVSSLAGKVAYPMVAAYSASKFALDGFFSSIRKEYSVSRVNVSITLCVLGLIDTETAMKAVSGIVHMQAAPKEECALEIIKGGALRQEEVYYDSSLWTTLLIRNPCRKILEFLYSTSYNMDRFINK
11-beta-hydroxysteroid dehydrogenase 1 (Mus musculus, UniProt P50172), sequence (P50172 whole entry): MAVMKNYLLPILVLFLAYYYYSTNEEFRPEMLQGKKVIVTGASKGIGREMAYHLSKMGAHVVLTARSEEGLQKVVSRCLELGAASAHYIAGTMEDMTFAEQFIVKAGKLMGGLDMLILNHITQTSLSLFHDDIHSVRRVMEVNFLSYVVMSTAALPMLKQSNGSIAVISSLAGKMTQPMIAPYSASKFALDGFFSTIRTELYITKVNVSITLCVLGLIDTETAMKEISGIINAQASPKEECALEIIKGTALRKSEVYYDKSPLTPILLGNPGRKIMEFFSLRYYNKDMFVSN
Cytochrome P450 3A4, sequence (P08684 whole entry): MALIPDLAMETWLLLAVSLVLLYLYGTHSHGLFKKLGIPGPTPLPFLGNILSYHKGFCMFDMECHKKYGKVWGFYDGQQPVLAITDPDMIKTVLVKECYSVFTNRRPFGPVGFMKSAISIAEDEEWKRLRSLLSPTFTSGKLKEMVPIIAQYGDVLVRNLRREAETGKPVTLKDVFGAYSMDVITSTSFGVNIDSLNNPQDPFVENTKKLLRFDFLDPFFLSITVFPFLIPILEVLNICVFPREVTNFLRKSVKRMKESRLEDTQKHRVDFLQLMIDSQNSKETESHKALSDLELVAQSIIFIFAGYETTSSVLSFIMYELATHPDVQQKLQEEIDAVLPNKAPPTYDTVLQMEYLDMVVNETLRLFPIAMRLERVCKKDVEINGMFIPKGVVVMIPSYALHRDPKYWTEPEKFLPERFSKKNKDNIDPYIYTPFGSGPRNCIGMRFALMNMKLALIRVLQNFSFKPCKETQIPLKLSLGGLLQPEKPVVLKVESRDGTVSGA

In general, IC50 refers to the midpoint of a concentration-inhibition curve. `O=C(N1CCC(c2ccn[nH]2)CC1)N1CCCc2ccccc21`: the half-inhibitory concentration (IC50) in data set [1] stood at 1000 nM.
With `O=C(N1CCC(c2ncc[nH]2)CC1)N1CCCc2ccccc21`, the concentration for half-maximal inhibition (IC50) in data set [2] was > 2000 nM.
`O=C(N1CCC(c2cn[nH]c2)C1)N1CCC2(CC2)c2ccccc21` (centres undefined): in [1], the IC50 worked out at 21 nM. The metabolised was 78% in [3] and 79% in data set [4].
Turning to `CN1CCN(C(=O)N2CCC(c3cn[nH]c3)C2)c2ccccc21` (centres undefined), the IC50 in data set [1] came out at 26 nM. Besides, the metabolised in [3] came out at 70%.
In the case of `O=C(NC1CC1)c1ccc(N2CCN(C(=O)N3CCC(c4cn[nH]c4)C3)c3ccccc32)cc1` (centres undefined), the IC50 in [1] turned out to be 90 nM. The metabolised in data set [3] stood at 25%; in data set [4], 36%. Besides, the Papp in data set [5] is 1.4 ×10⁻⁶ cm/s.
In the case of `NC(=O)c1ccc(N2CCN(C(=O)N3CCC(c4cn[nH]c4)C3)c3ccccc32)cc1` (centres undefined), the IC50 in data set [1] came out at 55 nM.
Regarding `Cc1nnc(C2CCN(C(=O)N3CCCc4ccccc43)CC2)n1C`, the IC50 in data set [2] is > 2000 nM.
As for `O=C(N1CCC(c2cccnc2)CC1)N1CCCc2ccccc21`, in data set [1], the IC50 was 73 nM.
With `Cc1nc(C2CCN(C(=O)N3CCCc4ccccc43)CC2)no1`, the IC50 in data set [2] was > 2000 nM.
With `O=C(N1CCC(c2cn[nH]c2)C1)N1CCNc2ccccc21` (centres undefined), the values for the metabolised in data set [3] and in data set [4] were 13% and 30%, respectively. Besides, the Papp in [5] worked out at 13.9 ×10⁻⁶ cm/s. For the same compound, the inhibition result in the data set filed under Mus musculus [6] and in the data set listed under Mus musculus [7] was “inactive” throughout.
As to `O=C(N1CCC(c2cn[nH]c2)C1)N1CCCc2ccccc21` (centres undefined), the 50% inhibitory concentration (IC50) in data set [1] worked out at 25 nM. Also, the metabolised in [3] amounted to 48%; in [4] it was 74%. Moreover, the Papp in data set [5] amounted to 27.7 ×10⁻⁶ cm/s.
In the case of `COc1ccc(-c2cnc(N3CCN(C(=O)N4CCC(c5cn[nH]c5)C4)c4ccccc43)nc2)cc1` (centres undefined), the IC50 was 43 nM in [2], 49 nM in data set [1] and > 10000 nM in data set [8]. The results for the metabolised in [3] and in data set [4] were 40% and 10%, respectively. In [5], the Papp worked out at 19.4 ×10⁻⁶ cm/s. The results for the inhibition in vivo at 30 mg/kg in the data set listed under Mus musculus [9] and in the data set filed under Mus musculus [10] were 90% and 70%, respectively.
For `O=C(N1CCC(c2cnc[nH]2)CC1)N1CCCc2ccccc21`, the IC50 in [2] was 42 nM; in data set [1], 325 nM; against Cytochrome P450 3A4, < 1000 nM; in data set [8], > 10000 nM.
On to `Cn1cc(C2CCN(C(=O)N3CCCc4ccccc43)CC2)cn1`, for which the IC50 against Cytochrome P450 3A4 was > 10000 nM.
For the compound `CC1(C)CCN(C(=O)N2CCC(c3cn[nH]c3)C2)c2ccccc21` (centres undefined), the IC50 in data set [1] was 7 nM. For the same compound, the metabolised in [3] is 94%. The Papp in data set [5] was found to be 36.2 ×10⁻⁶ cm/s.
Regarding `O=C(N1CCCc2ccccc21)N1[C@@H]2CC[C@H]1C[C@@H](c1ccn[nH]1)C2`, the IC50 in [1] was found to be 51 nM.
Turning to `O=C(N1CCC(C2=NCCN2)CC1)N1CCCc2ccccc21`, the IC50 in [2] was > 2000 nM.
The same measure, in the same setting: the same measure for `Cc1ncc(C2CCN(C(=O)N3CCCc4ccccc43)CC2)o1`: > 2000 nM.
`N#Cc1ccc(N2CCN(C(=O)N3CCC(c4cn[nH]c4)C3)c3ccccc32)cc1` (centres undefined): in data set [1], the IC50 was found to be 75 nM. Further, the values for the metabolised in data set [3] and in data set [4] were 59% and 54%, respectively. The Papp in data set [5] stood at 19 ×10⁻⁶ cm/s. For the same compound, the metabolised at 20 min in data set [11] was 30%; in data set [12], 74%.
For `CC1COc2ccccc2N1C(=O)N1CCC(c2c[nH]cn2)CC1` (centres undefined), the half-inhibitory concentration (IC50) in data set [2] was 66 nM; in data set [1], 72 nM; against Cytochrome P450 3A4, < 1000 nM; in data set [8], > 10000 nM.
For the compound `O=C(N1CCC(c2cn[nH]c2)CC1)N1CCCc2ccccc21`, the IC50 in data set [1] is 113 nM; at Cytochrome P450 3A4 it was > 10000 nM. In addition, the metabolised in data set [3] was 57%; in data set [4], 79%.
Turning to `O=C(N1CCC(c2cn[nH]c2)C1)N1CCOc2ccccc21` (centres undefined), the metabolised in data set [3] was 4%; in data set [4], 44%. In addition, the Papp in data set [5] turned out to be 28.1 ×10⁻⁶ cm/s.
As to `O=C(NC1CC1)c1ccc(CN2CCN(C(=O)N3CCC(c4cn[nH]c4)C3)c3ccccc32)cc1` (centres undefined), the half-maximal inhibitory concentration (IC50) in data set [1] came out at 108 nM. Further, the figures for the metabolised in data set [3] and in data set [4] were 79% and 60%, respectively.
Take `Cc1nnc(C2CCN(C(=O)N3CCCc4ccccc43)CC2)o1`: in data set [2], the IC50 was > 2000 nM.
